Reference: patent US20100216779A1 (GLAXOSMITHKLINE LLC, priority 2007, published 2010)
pIC50: −log10 of the molar value.

Assays:
Format in all cases: cell-based
[1] = system: NCI-H929 (multiple myeloma); assay: Inhibition of cell proliferation, CellTiter-Glo, NCI-H929; conditions: Homo sapiens, 72 h
Protocol: C. Inhibition of Cell Proliferation
Cell proliferation was measured by either CellTiter-Glo (measures cellular ATP level as a surrogate for total cell number) or by InCell analyzer (counts number of nuclei as a measure of cell number). For CellTiter-Glo assay, exponentially growing cell lines of different tumor origins, cultured in appropriate media containing 10% fetal bovine serum at 37° C. in a 5% CO2 incubator, were plated at low density (less than 2000 cells/well) in 96-well plates. Twenty four hours post-plating, cells were treated with different concentrations of test compounds ranging from 30 uM to 1.5 nM. Several wells were left untreated as a control. Seventy two hours post-treatment, cell numbers were determined using 50-100 ul per well of CellTiter-Glo (Promega #G7573). Plates were incubated at 37° C. for 30 minutes and the chemiluminescent signal was read on the Victor V or Envison 2100 reader. […]

[2] = system: COLO205 (colon); assay: Inhibition of cell proliferation, CellTiter-Glo, COLO205; conditions: Homo sapiens, COLO 205, 72 h
Outline: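 Exponentially growing COLO205 cells in medium with 10% FBS were plated below 2000 cells/well at 37 °C, 5% CO2. Untreated wells served as controls.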

[3] = target: T1, IR (NIH-3T3 cells over expressing human IGF-1R or IR) (Homo sapiens, UniProt P06213); assay: IR cellular autophosphorylation (DELFIA); conditions: NIH-3T3 cells over expressing IR, insulin stimulated
T1 construct: expressed in transfected cells; host or cells: NIH-3T3 (mouse fibroblasts)
T1 sequence (P06213 28-1382): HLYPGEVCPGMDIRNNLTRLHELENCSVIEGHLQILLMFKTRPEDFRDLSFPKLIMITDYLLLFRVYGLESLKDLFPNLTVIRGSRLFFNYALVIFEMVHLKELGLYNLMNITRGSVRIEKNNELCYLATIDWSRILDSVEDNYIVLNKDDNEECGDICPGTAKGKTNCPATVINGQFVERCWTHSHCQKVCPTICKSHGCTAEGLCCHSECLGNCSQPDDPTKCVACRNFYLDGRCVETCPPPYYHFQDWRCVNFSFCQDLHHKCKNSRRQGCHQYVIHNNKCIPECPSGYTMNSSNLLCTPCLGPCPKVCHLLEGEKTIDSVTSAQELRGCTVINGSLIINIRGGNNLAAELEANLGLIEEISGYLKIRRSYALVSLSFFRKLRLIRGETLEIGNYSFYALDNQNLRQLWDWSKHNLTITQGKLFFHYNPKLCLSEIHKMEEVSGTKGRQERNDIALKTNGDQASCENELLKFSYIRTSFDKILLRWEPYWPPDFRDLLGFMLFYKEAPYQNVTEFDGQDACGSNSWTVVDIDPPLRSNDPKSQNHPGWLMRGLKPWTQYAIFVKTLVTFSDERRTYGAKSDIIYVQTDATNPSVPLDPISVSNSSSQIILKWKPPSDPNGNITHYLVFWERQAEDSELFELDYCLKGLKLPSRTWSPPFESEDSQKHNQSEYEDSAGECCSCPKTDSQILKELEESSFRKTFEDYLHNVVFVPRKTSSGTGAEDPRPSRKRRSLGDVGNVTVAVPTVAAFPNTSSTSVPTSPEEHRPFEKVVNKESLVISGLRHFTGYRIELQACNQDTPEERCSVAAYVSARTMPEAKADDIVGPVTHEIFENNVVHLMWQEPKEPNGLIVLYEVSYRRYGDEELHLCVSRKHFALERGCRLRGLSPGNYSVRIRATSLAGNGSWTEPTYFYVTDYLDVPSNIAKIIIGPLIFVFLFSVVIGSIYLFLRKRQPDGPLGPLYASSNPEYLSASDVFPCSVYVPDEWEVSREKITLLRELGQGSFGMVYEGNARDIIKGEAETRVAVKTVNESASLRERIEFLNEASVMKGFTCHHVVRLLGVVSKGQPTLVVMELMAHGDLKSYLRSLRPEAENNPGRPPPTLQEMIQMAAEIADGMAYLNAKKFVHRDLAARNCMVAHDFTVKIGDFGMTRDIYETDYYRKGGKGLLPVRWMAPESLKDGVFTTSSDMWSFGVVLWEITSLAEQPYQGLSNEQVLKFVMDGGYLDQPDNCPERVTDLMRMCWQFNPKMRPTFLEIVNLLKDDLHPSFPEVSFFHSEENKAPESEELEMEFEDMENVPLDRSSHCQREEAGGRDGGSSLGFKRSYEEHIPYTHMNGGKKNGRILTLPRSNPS
Outline: (§1)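 Read-out: DELFIA on lysates, receptor-specific capture antibody plus europium-labelled anti-phosphotyrosine, reported as % of IGF-1- or insulin-stimulated signal. Transfected NIH-3T3 cells got compound (30 uM–1.5 nM, 2 h) before a 15 min ligand pulse: IGF-1 30 ng/mL for IGF-1R, insulin 3 ug/mL for IR.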

[4] = target: T2, human IGF-1R (NIH-3T3 cells over expressing human IGF-1R) (Homo sapiens, UniProt P08069); assay: IGF-1R cellular autophosphorylation (DELFIA); conditions: IGF-1 stimulated
T2 construct: expressed in transfected cells; host or cells: NIH-3T3 (mouse fibroblasts)
T2 sequence (P08069 31-1367): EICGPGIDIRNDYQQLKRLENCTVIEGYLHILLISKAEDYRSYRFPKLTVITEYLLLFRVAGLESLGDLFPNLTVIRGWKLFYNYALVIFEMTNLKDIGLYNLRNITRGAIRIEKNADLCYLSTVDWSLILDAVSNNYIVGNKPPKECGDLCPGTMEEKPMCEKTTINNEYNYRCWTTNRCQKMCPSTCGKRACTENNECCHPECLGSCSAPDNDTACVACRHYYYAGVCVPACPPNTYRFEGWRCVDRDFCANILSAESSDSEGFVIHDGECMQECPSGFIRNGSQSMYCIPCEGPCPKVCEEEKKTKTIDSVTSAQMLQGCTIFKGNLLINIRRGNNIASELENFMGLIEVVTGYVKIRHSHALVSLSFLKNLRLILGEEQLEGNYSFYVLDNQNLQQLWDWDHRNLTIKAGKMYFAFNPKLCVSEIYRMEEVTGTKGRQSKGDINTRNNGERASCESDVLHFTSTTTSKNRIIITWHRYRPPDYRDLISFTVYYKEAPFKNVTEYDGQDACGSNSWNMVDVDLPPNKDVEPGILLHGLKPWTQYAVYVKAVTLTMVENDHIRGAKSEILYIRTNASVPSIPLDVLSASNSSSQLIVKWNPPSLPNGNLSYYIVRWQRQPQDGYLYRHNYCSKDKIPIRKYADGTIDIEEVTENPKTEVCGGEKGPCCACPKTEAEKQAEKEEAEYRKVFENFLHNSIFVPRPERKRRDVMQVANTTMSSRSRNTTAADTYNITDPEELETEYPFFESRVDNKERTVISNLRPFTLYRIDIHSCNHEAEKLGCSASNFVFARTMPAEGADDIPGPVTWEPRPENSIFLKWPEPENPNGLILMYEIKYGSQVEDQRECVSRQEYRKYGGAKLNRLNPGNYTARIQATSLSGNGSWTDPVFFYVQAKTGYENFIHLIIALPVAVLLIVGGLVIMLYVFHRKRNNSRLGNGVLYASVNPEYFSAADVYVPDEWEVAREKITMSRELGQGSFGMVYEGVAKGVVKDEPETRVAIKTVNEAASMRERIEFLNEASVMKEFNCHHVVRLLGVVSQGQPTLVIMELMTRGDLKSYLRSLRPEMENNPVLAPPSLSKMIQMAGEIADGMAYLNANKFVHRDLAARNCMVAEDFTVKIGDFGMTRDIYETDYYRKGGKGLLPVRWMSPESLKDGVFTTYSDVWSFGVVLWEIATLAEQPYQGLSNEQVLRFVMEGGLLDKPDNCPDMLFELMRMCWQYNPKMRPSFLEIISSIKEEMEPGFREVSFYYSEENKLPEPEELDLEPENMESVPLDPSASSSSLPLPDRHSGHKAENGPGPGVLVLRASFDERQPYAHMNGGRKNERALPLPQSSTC
Outline: as §1

SMILES	pIC50 [1]	pIC50 [2]	pIC50 [3]	pIC50 [4]
COc1cc(N2CCC(N3CCCCCC3)CC2)ccc1Nc1nccc(-c2c(-c3cccc(C(=O)Nc4c(F)cccc4F)c3)nc3ccccn23)n1 [Example 50, N-(2,6-difluorophenyl)-3-[3-(2-{[4-[4-(hexahydro-1H-azepin-1-yl)-1-piperidinyl]-2-(methyloxy)phenyl]amino}-4-pyrimidinyl)imidazo[1,2-a]pyridin-2-yl]benzamide]		6.00 to 6.60	> 7.00	> 7.00
COc1cc(N2CCC(N3CCC(C)CC3)CC2)ccc1Nc1nccc(-c2c(-c3cccc(C(=O)Nc4c(F)cccc4F)c3)nc3ccccn23)n1 [Example 46, N-(2,6-difluorophenyl)-3-[3-(2-{[4-(4-methyl-1,4′-bipiperidin-1′-yl)-2-(methyloxy)phenyl]amino}-4-pyrimidinyl)imidazo[1,2-a]pyridin-2-yl]benzamide]		< 6.00	6.30 to 7.00	6.30 to 7.00
COc1ccn2c(-c3ccnc(Nc4cccc(OCCN(C)C)c4)n3)c(-c3cccc(C(=O)Nc4ccc(F)cc4F)c3)nc2c1 [Example 16, N-(2,4-difluorophenyl)-3-[3-{2-[(3-{[2-(dimethylamino)ethyl]oxy}phenyl)amino]-4-pyrimidinyl}-7-(methyloxy)imidazo[1,2-a]pyridin-2-yl]benzamide]		6.00 to 6.60	> 7.00	> 7.00
COc1cc([C@H]2CC[C@@H](N3CCN(CCS(C)(=O)=O)CC3)CC2)ccc1Nc1nccc(-c2c(-c3cccc(C(=O)Nc4c(F)cccc4F)c3)nc3ccccn23)n1 [Example 93, N-(2,6-difluorophenyl)-3-[3-(2-{[2-(methyloxy)-4-(cis-4-{4-[2-(methylsulfonyl)-ethyl]-1-piperazinyl}cyclohexyl)phenyl]amino]-4-pyrimidinyl)imidazo[1,2-a]pyridin-2-yl]benzamide]		6.00 to 6.60	> 7.00	> 7.00
COc1cc(N2CCC(CN3CCN(C)CC3)CC2)ccc1Nc1nccc(-c2c(-c3cccc(C(=O)Nc4c(F)cccc4F)c3)nc3ccccn23)n1 [Example 37, N-(2,6-difluorophenyl)-3-(3-{2-[(2-(methyloxy)-4-{4-[(4-methyl-1-piperazinyl)methyl]-1-piperidinyl}phenyl)amino]-4-pyrimidinyl}imidazo[1,2-a]pyridin-2-yl)benzamide]		6.00 to 6.60	> 7.00	> 7.00
COc1cc(N2CCC(N3C[C@@H](C)O[C@@H](C)C3)CC2)ccc1Nc1nccc(-c2c(-c3cccc(C(=O)Nc4c(F)cccc4F)c3)nc3ccccn23)n1 [Example 47, N-(2,6-difluorophenyl)-3-[3-(2-{[4-{4-[(2R,6S)-2,6-dimethyl-4-monpholinyl]-1-piperidinyl}-2-(methyloxy)phenyl]amino}-4-pyrimidinyl)imidazo[1,2-a]pyridin-2-yl]benzamide]		6.00 to 6.60	6.30 to 7.00	> 7.00
COc1cc(C2CCN(CCF)CC2)ccc1Nc1nccc(-c2c(-c3ccc(OC)c(C(=O)Nc4c(F)cccc4F)c3)nc3ccccn23)n1 [Example 179, N-(2,6-difluorophenyl)-5-[3-(2-{[4-[1-(2-fluoroethyl)-4-piperidinyl}-2-(methyloxy)phenyl]-amino}-4-pyrimidinyl)imidazo[1,2-a]pyridin-2-yl]-2-(methyloxy)benzamide]		6.00 to 6.60	> 7.00	> 7.00
COc1ccc(-c2nc3cc(C)ccn3c2-c2ccnc(Nc3cccc(OCCN(C)C)c3)n2)cc1C(=O)Nc1c(F)cccc1F [Example 2, N-(2,6-difluorophenyl)-5-(3-{2-[(3-{[2-(dimethylamino)ethyl]oxy}phenyl)amino]-4-pyrimidinyl}-7-methylimidazo[1,2-a]pyridin-2-yl)-2-(methyloxy)benzamide]		6.00 to 6.60	< 6.30	< 6.30
COc1cc(N2CCC(N3CCCCC3)CC2)ccc1Nc1nccc(-c2c(-c3cccc(C(=O)Nc4ccc(F)cc4F)c3)nc3ccccn23)n1 [Example 72, 3-[3-(2-{[4-(1,4′-bipiperidin-1′-yl)-2-(methyloxy)phenyl]amino}-4-pyrimidinyl)imidazo[1,2-a]pyridin-2-yl]-N-(2,4-difluorophenyl)benzamide]		6.00 to 6.60	> 7.00	> 7.00

Now from value to molecule:

pIC50 [1]	pIC50 [2]	pIC50 [3]	pIC50 [4]	SMILES
> 6.60	> 6.60			CCOc1cc(N2CCC(N3CCN(S(C)(=O)=O)CC3)CC2)c(CC)cc1Nc1nccc(-c2c(-c3ccc(OCC)c(C(=O)Nc4c(F)cccc4F)c3)nc3ccccn23)n1 [Example 205, N-(2,6-difluorophenyl)-5-(3-{2-[(5-ethyl-2-(ethyloxy)-4-{4-[4-(methylsulfonyl)-1-piperazinyl]-1-piperidinyl}phenyl)amino]-4-pyrimidinyl}imidazo[1,2-a]pyridin-2-yl)-2-(ethyloxy)benzamide]
> 6.60	6.00 to 6.60			COc1cc(N2CCC(CCS(C)(=O)=O)CC2)c(C)cc1Nc1nccc(-c2c(-c3ccc(OC)c(C(=O)Nc4c(F)cccc4F)c3)nc3cc(F)ccn23)n1 [Example 220, N-(2,6-difluorophenyl)-5-(7-fluoro-3-{2-[(5-methyl-2-(methyloxy)-4-{4-[2-(methylsulfonyl)ethyl]-1-piperidinyl}phenyl)amino]-4-pyrimidinyl}imidazo[1,2-a]pyridin-2-yl)-2-(methyloxy)benzamide]
> 6.60	6.00 to 6.60			COc1cc(C2CCN(CCS(C)(=O)=O)CC2)ccc1Nc1nccc(-c2c(-c3ccc(OC)c(C(=O)Nc4c(F)cccc4F)c3)nc3ccccn23)n1 [Example 181, N-(2,6-difluorophenyl)-2-(methyloxy)-5-(3-{2-[(2-(methyloxy)-4-{1-[2-(methylsulfonyl)ethyl]-4-piperidinyl}phenyl)amino]-4-pyrimidinyl}imidazo[1,2-a]pyridin-2-yl)benzamide]
> 6.60	6.00 to 6.60			CCOc1cc(N2CCC(CCS(C)(=O)=O)CC2)c(C)cc1Nc1nccc(-c2c(-c3ccc(OC)c(C(=O)Nc4c(F)cccc4F)c3)nc3cc(F)ccn23)n1 [Example 218, N-(2,6-difluorophenyl)-5-(3-{2-[(2-(ethyloxy)-5-methyl-4-{4-[2-(methylsulfonyl)ethyl]-1-piperidinyl}phenyl)amino]-4-pyrimidinyl}-7-fluoroimidazo[1,2-a]pyridin-2-yl)-2-(methyloxy)benzamide]
> 6.60	> 6.60			CCOc1ccc(-c2nc3ccccn3c2-c2ccnc(Nc3ccc(C4CCN(CCS(C)(=O)=O)CC4)cc3OC)n2)cc1C(=O)Nc1c(F)cccc1F [Example 182, N-(2,6-difluorophenyl)-2-(ethyloxy)-5-(3-{2-[(2-(methyloxy)-4-{1-[2-(methylsulfonyl)ethyl]-4-piperidinyl}phenyl)amino]-4-pyrimidinyl}imidazo[1,2-a]pyridin-2-yl)benzamide]
> 6.60	> 6.60			CCOc1cc(N2CCN(CCS(C)(=O)=O)CC2)c(C)cc1Nc1nccc(-c2c(-c3ccc(OC)c(C(=O)Nc4c(F)cccc4F)c3)nc3ccccn23)n1 [Example 247, N-(2,6-difluorophenyl)-5-(3-{2-[(2-(ethyloxy)-5-methyl-4-[4-[2-(methylsulfonyl)ethyl]-1-piperazinyl}phenyl)amino]-4-pyrimidinyl}imidazo[1,2-a]pyridin-2-yl)-2-(methyloxy)benzamide]
	> 6.60	> 7.00	> 7.00	COc1cc(N2CCN(C3CCN(CCS(C)(=O)=O)CC3)CC2)ccc1Nc1nccc(-c2c(-c3cccc(C(=O)Nc4c(F)cccc4F)c3)nc3ccccn23)n1 [Example 89, N-(2,6-difluorophenyl)-3-[3-(2-{[2-(methyloxy)-4-(4-{1-[2-(methylsulfonyl)ethyl]-4-piperidinyl}-1-piperazinyl)phenyl]amino}-4-pyrimidinyl)imidazo[1,2-a]pyridin-2-yl]benzamide]
	> 6.60	< 6.30	6.30 to 7.00	COc1ccn2c(-c3ccnc(Nc4cccc(OCCN(C)C)c4)n3)c(-c3cccc(C(=O)Nc4cccc(F)c4F)c3)nc2c1 [Example 15, N-(2,3-difluorophenyl)-3-[3-{2-[(3-{[2-(dimethylamino)ethyl]oxy}phenyl)amino]-4-pyrimidinyl}-7-(methyloxy)imidazo[1,2-a]pyridin-2-yl]benzamide]
	> 6.60	> 7.00	> 7.00	COc1cc(N2CCC(N3CCCCC3)CC2)ccc1Nc1nccc(-c2c(-c3ccc(OC)c(C(=O)Nc4c(F)cccc4F)c3)nc3ccccn23)n1 [Example 23, 5-[3-(2-{[4-(1,4′-bipiperidin-1-yl)-2-(methyloxy)phenyl]amino}-4-pyrimidinyl)imidazo[1,2-a]pyridin-2-yl]-N-(2,6-difluorophenyl)-2-(methyloxy)benzamide]
